Here are results for 33 compounds from US11447505B1, “Pyrrolo[2,3-b]pyridine compounds and their use in the treatment of cancer” (priority 2017, dated 2022).

For one assay, the target named is ROCK1 (Homo sapiens (Human), UniProt Q13464). The following applies: read-out: ROCK1 Average Ki; 1 μM ATP.
In another assay the target is ROCK2 (Homo sapiens (Human), UniProt O75116). The experiment in a line: ROCK2 kinase assay (IMAP fluorescence polarization). Type of assay: biochemical. The following applies: 1 μM ATP; read-out: ROCK2 Average Ki.
The target of another assay is MRCKβ (Homo sapiens (Human), UniProt Q9Y5S2). Put plainly: MRCKβ kinase assay (IMAP fluorescence polarization). The note with it: 1 μM ATP; read-out: MRCK-B Average Ki. Type of assay: biochemical. An excerpt: MRCKα, MRCKβ, ROCK1 and ROCK2 Kinase Assays

Chain of ROCK1 (Q13464 2-1354 limits assumed): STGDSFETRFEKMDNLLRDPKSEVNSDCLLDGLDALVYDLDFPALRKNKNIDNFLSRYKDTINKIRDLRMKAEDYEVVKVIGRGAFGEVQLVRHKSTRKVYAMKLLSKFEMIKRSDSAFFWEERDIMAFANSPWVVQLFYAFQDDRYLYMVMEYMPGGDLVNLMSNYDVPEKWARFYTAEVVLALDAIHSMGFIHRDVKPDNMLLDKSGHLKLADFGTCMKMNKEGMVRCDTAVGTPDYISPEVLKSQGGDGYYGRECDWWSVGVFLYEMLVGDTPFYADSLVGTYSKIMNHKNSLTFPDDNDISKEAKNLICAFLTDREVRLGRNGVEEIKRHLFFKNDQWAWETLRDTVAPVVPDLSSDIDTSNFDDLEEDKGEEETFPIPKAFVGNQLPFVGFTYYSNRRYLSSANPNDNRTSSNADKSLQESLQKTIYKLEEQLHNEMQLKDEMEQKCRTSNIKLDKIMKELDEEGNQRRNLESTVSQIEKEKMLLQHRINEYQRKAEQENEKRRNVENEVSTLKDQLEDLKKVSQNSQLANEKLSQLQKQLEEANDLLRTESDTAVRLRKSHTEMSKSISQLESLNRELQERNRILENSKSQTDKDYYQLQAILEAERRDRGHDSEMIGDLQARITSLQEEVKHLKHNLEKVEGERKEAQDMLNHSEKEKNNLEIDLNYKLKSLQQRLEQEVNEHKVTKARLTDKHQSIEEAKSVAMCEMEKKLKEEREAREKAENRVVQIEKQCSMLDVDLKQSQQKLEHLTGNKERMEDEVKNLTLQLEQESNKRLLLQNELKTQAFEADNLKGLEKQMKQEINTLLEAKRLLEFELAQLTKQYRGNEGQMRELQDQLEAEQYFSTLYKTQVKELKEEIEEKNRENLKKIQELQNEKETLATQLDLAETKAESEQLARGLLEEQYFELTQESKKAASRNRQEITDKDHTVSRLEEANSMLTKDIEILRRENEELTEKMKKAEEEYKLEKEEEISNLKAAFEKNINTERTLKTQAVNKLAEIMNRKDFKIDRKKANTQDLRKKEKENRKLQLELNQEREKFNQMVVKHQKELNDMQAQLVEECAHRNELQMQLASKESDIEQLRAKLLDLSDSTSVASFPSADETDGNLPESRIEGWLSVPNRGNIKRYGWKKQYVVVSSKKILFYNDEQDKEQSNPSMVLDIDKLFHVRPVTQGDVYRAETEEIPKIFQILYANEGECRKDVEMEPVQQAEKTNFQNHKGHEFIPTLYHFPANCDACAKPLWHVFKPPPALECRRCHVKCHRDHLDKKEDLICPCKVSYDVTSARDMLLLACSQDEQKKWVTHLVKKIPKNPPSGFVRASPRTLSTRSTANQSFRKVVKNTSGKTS
Chain of ROCK2 (O75116 whole entry): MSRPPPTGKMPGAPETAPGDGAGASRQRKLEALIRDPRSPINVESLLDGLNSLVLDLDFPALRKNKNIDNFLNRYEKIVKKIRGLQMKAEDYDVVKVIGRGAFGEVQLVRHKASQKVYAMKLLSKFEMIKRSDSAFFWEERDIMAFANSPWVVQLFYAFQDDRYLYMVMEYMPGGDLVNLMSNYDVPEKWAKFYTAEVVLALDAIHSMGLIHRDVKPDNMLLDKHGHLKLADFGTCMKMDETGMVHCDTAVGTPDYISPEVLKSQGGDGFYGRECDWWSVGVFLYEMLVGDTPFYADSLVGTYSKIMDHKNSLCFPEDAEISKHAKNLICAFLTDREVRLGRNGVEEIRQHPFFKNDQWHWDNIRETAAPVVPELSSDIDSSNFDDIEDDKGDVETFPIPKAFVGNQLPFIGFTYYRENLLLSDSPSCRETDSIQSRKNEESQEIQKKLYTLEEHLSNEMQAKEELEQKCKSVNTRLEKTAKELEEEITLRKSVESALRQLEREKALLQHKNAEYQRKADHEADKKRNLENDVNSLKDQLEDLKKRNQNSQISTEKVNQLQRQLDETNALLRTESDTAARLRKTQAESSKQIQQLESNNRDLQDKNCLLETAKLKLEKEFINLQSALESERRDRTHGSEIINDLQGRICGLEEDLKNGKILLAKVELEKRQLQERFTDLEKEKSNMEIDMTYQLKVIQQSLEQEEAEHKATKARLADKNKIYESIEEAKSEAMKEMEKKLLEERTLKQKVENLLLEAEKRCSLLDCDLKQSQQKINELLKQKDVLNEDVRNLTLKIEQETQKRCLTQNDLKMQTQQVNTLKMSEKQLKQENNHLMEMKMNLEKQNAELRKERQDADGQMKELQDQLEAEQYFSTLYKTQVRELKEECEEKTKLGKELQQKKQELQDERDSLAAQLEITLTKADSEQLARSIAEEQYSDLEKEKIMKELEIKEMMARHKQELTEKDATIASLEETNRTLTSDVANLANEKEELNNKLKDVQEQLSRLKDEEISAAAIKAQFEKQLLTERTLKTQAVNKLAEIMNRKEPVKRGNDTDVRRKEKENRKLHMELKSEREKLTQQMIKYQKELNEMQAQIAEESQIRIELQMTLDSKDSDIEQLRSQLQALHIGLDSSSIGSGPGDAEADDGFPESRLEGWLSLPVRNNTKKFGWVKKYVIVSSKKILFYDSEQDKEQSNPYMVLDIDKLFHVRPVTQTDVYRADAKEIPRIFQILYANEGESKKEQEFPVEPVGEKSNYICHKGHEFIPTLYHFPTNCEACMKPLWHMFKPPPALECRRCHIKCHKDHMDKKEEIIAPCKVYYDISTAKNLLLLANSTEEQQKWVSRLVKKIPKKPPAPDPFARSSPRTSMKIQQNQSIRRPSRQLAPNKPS

As to `Cn1nccc1-c1c[nH]c2nccc(N3CCCCC3)c12` [Example E18, 3-(2-methylpyrazol-3-yl)-4-(1-piperidyl)-1H-pyrrolo[2,3-b]pyridine], the results for the Ki at ROCK1, on ROCK2 and on MRCKβ were 10000 nM, 2480 nM and 818 nM, respectively.
For `COC[C@@H]1CCCN1c1ccnc2[nH]cc(C#N)c12` [Example E108, 4-[(2S)-2-(methoxymethyl)pyrrolidin-1-yl]-1H-pyrrolo[2,3-b]pyridine-3-carbonitrile], in that order: 21.8 nM, 18.8 nM and 3.89 nM.
On to `N[C@H]1CCN(c2ccnc3[nH]cc(-c4cncnc4)c23)C1` [Example E58, (3S)-1-(3-pyrimidin-5-yl-1H-pyrrolo[2,3-b]pyridin-4-yl)pyrrolidin-3-amine], for which the inhibition constant Ki on ROCK1 worked out at 158 nM; on ROCK2, 85.8 nM; at MRCKβ it was 3.48 nM.
For `CNC1CCCN(c2ccnc3[nH]cc(-c4cncnc4)c23)C1` (stereo not drawn) [Example E62, N-methyl-1-(3-pyrimidin-5-yl-1H-pyrrolo[2,3-b]pyridin-4-yl)piperidin-3-amine], in that order: 360 nM, 314 nM and 4.1 nM.
As for `Cc1[nH]ncc1-c1c[nH]c2nccc(N3CCC[C@H](N)C3)c12` [Example E61, (3S)-1-[3-(5-methyl-1H-pyrazol-4-yl)-1H-pyrrolo[2,3-b]pyridin-4-yl]piperidin-3-amine], the values for the Ki at ROCK1, at ROCK2 and on MRCKβ were 93.2 nM, 68.3 nM and 11.5 nM, respectively.
For `NC1CCCN(c2ccnc3[nH]cc(-c4cncnc4)c23)C1` (stereo not drawn) [Example E59, 1-(3-pyrimidin-5-yl-1H-pyrrolo[2,3-b]pyridin-4-yl)piperidin-3-amine], in that order: 318 nM, 154 nM and 6.9 nM.
On to `c1ncc(-c2c[nH]c3nccc(OC[C@H]4CCNC4)c23)cn1` [Example E215, 3-pyrimidin-5-yl-4-[[(3S)-pyrrolidin-3-yl]methoxy]-1H-pyrrolo[2,3-b]pyridine], for which the inhibition constant (Ki) on ROCK1 stood at 47.8 nM; at ROCK2, 34.7 nM; on MRCKβ, 3.86 nM.
For `O[C@H]1CCCN(c2ccnc3[nH]cc(-c4cncnc4)c23)C1` [Example E101, (3S)-1-(3-pyrimidin-5-yl-1H-pyrrolo[2,3-b]pyridin-4-yl)piperidin-3-ol], in that order: 567 nM, 363 nM and 22.5 nM.
For `CNc1cc(-c2c[nH]c3nccc(N4CCCCC4)c23)ccn1` [Example E5, N-methyl-4-[4-(1-piperidyl)-1H-pyrrolo[2,3-b]pyridin-3-yl]pyridin-2-amine], in that order: 40.8 nM, 22.5 nM and 3.02 nM.
For the compound `c1ncc(-c2c[nH]c3nccc(O[C@@H]4CCCNC4)c23)cn1` [Example E217, 4-[[(3R)-3-piperidyl]oxy]-3-pyrimidin-5-yl-1H-pyrrolo[2,3-b]pyridine], the inhibitory constant (Ki) on ROCK1 was determined as 114 nM; at ROCK2, 77.5 nM; on MRCKβ, 4.01 nM.
For `N#Cc1c[nH]c2nccc(N3CCCC3Cc3ccccc3)c12` (stereo not drawn) [Example E107, 4-(2-benzylpyrrolidin-1-yl)-1H-pyrrolo[2,3-b]pyridine-3-carbonitrile], in that order: 1880 nM, 2820 nM and 90.3 nM.
For `CNC(=O)c1cncc(-c2c[nH]c3nccc(N4CCCCC4)c23)c1` [Example E13, N-methyl-5-[4-(1-piperidyl)-1H-pyrrolo[2,3-b]pyridin-3-yl]pyridine-3-carboxamide], in that order: 10000 nM, 1740 nM and 378 nM.
For `CN[C@H]1CCCN(c2ccnc3[nH]cc(-c4cnsc4)c23)C1` [Example E67, (3S)-1-(3-isothiazol-4-yl-1H-pyrrolo[2,3-b]pyridin-4-yl)-N-methyl-piperidin-3-amine], in that order: 109 nM, 36.4 nM and 0.273 nM.
In the case of `c1cc(-c2c[nH]c3nccc(N4CCCCC4)c23)cnn1` [Example E14, 4-(1-piperidyl)-3-pyridazin-4-yl-1H-pyrrolo[2,3-b]pyridine], the Ki at ROCK1 was found to be 9 nM; at ROCK2 it was 6.5 nM; at MRCKβ it was 9.4 nM.
For `CN1CCN(c2ccnc3[nH]cc(C#N)c23)CC1` [Example E32, 4-(4-methylpiperazin-1-yl)-1H-pyrrolo[2,3-b]pyridine-3-carbonitrile], in that order: 237 nM, 164 nM and 147 nM.
For `c1cc(N2CCC2)c2c(-c3cc[nH]n3)c[nH]c2n1` [Example E28, 4-(azetidin-1-yl)-3-(1H-pyrazol-3-yl)-1H-pyrrolo[2,3-b]pyridine], in that order: 14.4 nM, 9.8 nM and 29.4 nM.
For `c1ccc2c(-c3c[nH]c4nccc(N5CCCCC5)c34)n[nH]c2c1` [Example E17, 3-(1H-indazol-3-yl)-4-(1-piperidyl)-1H-pyrrolo[2,3-b]pyridine], in that order: 10000 nM, 10000 nM and 696 nM.
In the case of `c1cnc(-c2c[nH]c3nccc(N4CCCCC4)c23)cn1` [Example E16, 4-(1-piperidyl)-3-pyrazin-2-yl-1H-pyrrolo[2,3-b]pyridine], the inhibitory constant (Ki) on ROCK1 came to 504 nM; at ROCK2, 159 nM; at MRCKβ, 61.8 nM.
For `CCn1cc(-c2c[nH]c3nccc(N4CCCCC4)c23)cn1` [Example E21, 3-(1-ethylpyrazol-4-yl)-4-(1-piperidyl)-1H-pyrrolo[2,3-b]pyridine], in that order: 74.9 nM, 67.9 nM and 188 nM.
For `Cn1cc(-c2c[nH]c3nccc(N4CCC[C@](N)(N5CCC(N)CC5)C4)c23)cn1` [Example E241], in that order: 543 nM, 224 nM and 11.9 nM.
Consider `CC(C)N[C@H]1CCCN(c2ccnc3[nH]cc(-c4cncnc4)c23)C1` [Example E76, (3S)-N-isopropyl-1-(3-pyrimidin-5-yl-1H-pyrrolo[2,3-b]pyridin-4-yl)piperidin-3-amine], for which the Ki at ROCK1 is 32400 nM; on ROCK2, 16800 nM; on MRCKβ, 871 nM.
For `N[C@@H]1CCCN(c2ccnc3[nH]cc(-c4cncnc4)c23)C1` [Example E64, (3R)-1-(3-pyrimidin-5-yl-1H-pyrrolo[2,3-b]pyridin-4-yl)piperidin-3-amine], in that order: 166 nM, 390 nM and 14.8 nM.
For the compound `c1ccc(-c2c[nH]c3nccc(N4CCC4)c23)nc1` [Example E25, 4-(azetidin-1-yl)-3-(2-pyridyl)-1H-pyrrolo[2,3-b]pyridine], the Ki was 10000 nM at ROCK1, 1500 nM on ROCK2 and 178 nM at MRCKβ.
For `CN1CCC[C@H](COc2ccnc3[nH]cc(-c4cncnc4)c23)C1` [Example E226, 3-pyrimidin-5-yl-4-[[(3S)-1-methyl-3-piperidyl]methoxy]-1H-pyrrolo[2,3-b]pyridine], in that order: 150 nM, 111 nM and 5 nM.
For `c1ncc(-c2c[nH]c3nccc(N4CCC[C@H](N5CCOCC5)C4)c23)cn1` [Example E96, 4-[(3S)-1-(3-pyrimidin-5-yl-1H-pyrrolo[2,3-b]pyridin-4-yl)-3-piperidyl]morpholine], in that order: 1300 nM, 876 nM and 28.8 nM.
Turning to `N#Cc1c[nH]c2nccc(N3CCCC(c4ccccc4)C3)c12` (stereo not drawn) [Example E112, 4-(3-phenyl-1-piperidyl)-1H-pyrrolo[2,3-b]pyridine-3-carbonitrile], the Ki at ROCK1 came to 682 nM; at ROCK2, 728 nM; at MRCKβ, 558 nM.
For `c1ncc(-c2c[nH]c3nccc(N4CCC5(CCNCC5)C4)c23)cn1` [Example E191, 2-(3-pyrimidin-5-yl-1H-pyrrolo[2,3-b]pyridin-4-yl)-2,8-diazaspiro[4.5]decane], in that order: 9.28 nM, 7.7 nM and 2.05 nM.
Consider `c1cc(-c2c[nH]c3nccc(O[C@@H]4CCCNC4)c23)ncn1` [Example E213, 3-pyrimidin-4-yl-4-[[(3R)-3-piperidyl]oxy]-1H-pyrrolo[2,3-b]pyridine], for which the figures for the Ki at ROCK1 and on MRCKβ were 3.84 nM and 0.144 nM, respectively.
For `c1csc(-c2c[nH]c3nccc(N4CC[C@]5(CCCCN5)C4)c23)n1` [Example E132, 2-[4-[(5R)-2,6-diazaspiro[4.5]decan-2-yl]-1H-pyrrolo[2,3-b]pyridin-3-yl]thiazole], in that order: 100000 nM and 4.11 nM.
For `c1ccc(-c2c[nH]c3nccc(N4CCC5(CCCN5)C4)c23)nc1` (stereo not drawn) [Example E137, 4-(1,7-diazaspiro[4.4]nonan-7-yl)-3-(2-pyridyl)-1H-pyrrolo[2,3-b]pyridine], in that order: 100000 nM and 2.83 nM.
Regarding `c1csc(-c2c[nH]c3nccc(N4CCCC5(CCCCN5)C4)c23)n1` (stereo not drawn) [Example E149, 2-[4-(1,8-diazaspiro[5.5]undecan-8-yl)-1H-pyrrolo[2,3-b]pyridin-3-yl]thiazole], the inhibitory constant (Ki) on ROCK1 amounted to 304 nM; at MRCKβ, 0.0633 nM.
For “7-(3-pyridazin-4-yl-1H-pyrrolo[2,3-b]pyridin-4-yl)-2,7-diazaspiro[4.5]decane [Example E163]”, in that order: 16.7 nM and 2.4 nM.
For `c1ccc(-c2c[nH]c3nccc(N4CCCC5(CCCCN5)C4)c23)nc1` (stereo not drawn) [Example E138, 8-[3-(2-pyridyl)-1H-pyrrolo[2,3-b]pyridin-4-yl]-1,8-diazaspiro[5.5]undecane], in that order: 319 nM and 0.0726 nM.
